Assay results taken from patent US9096832B2, “Differentiation of human embryonic stem cells” (LifeScan, Inc., priority 2007, dated 2015).
Values joined by “and” are separate entries in the source; they are usually repeats but may differ in a detail not shown here. Identical values can stand only once.

Key:
[1] = test system: human embryonic stem cell line H9; assay: Cytokine array (RayBiotech) of cell lysates and conditioned media, Activin A +/- Wnt3a (Table VII); type: cell-based; set-up: Angiogenin / BDNF / BMP-4 / BMP-6 / CK beta 8-1 / Eotaxin-3 / Flt-3 Ligand / Fractalkine / GCP-2 / GDNF / GM-CSF / I-309 / IFN-gamma / IGFBP-1 / IGFBP-2 / IGFBP-4 / IL-10 / IL-13 / IL-15 / IL-1alpha / IL-1beta / IL-1ra / IL-3 / IL-5 / Leptin / MCP-1 / MIP-1-delta / NT-3 / RANTES / SCF / TGF-beta 1 / TNF-beta / Acrp30 / AgRP / AxI / bFGF: unit not given here
Description: At passage 54, cells were differentiated in the presence of 100 ng/mlActivinA+/−10 ng/mlWnt3a for 2 days in 0.5% FBS DMEM/F12. […]
Cell lysates were prepared from cells of each treatment group, with a mammalian cell lysis kit (Sigma-Aldrich,MO). Conditioned media from each treatment group was collected and concentrated. Cytokine array analysis was completed using Cytokine Array panels provided by RayBiotech, GA (http://www.raybiotech.com/). […] For each panel, positive and negative controls are also included.

[2] = test system: human embryonic stem cell line H1 at passage 55; assay: Definitive endoderm on human serum coated plates (real-time PCR); type: cell-based; details: with activin A, vs activin A only
Description: Cultures of the human embryonic stem cell line H1 at passage 55 were grown and differentiated on human serum (Sigma, #H1388, MO) coated plates. 0.5 ml of human serum was added to each well of 6 well tissue culture treated dish, incubated for 1 hr at room temperature, and aspirated before adding human embryonic stem cells. […] These findings parallel our findings for human embryonic stem cells cultured on […]™ or human fibronectin coated plates.

H9 cells = assay: Immunofluorescence staining of DE markers, activin A +/- Wnt-3a; type: cell-based, human
Source text: Day 5 DE cultures of H9 cells were stained according to Example 10 for SOX-17, HNF-3B, GATA-4, N-cadherin, and E-cadherin. All nuclei were counter stained with DAPI.

[3] = test system: human embryonic stem cell line H9; assay: Cells from […] differentiated on MEFs: role of Wnt-3a (real-time PCR, FACS); type: cell-based
Description: Cells from the human embryonic stem cell line H9 cultured on […]™ for at least five passages were seeded onto MEF feeders in ES media.
At day 3 and 5, the cultures were analyzed by real time PCR for SOX-17, SOX-7, Alpha-fetal protein (AFP), CXCR4, Brychyury (Bry), gooscecoid (GSC), HNF-3 beta, GATA4, hTERT and Oct4. AFP and SOX-7 are regarded as visceral endoderm markers while GATA4, HNF-3beta and SOX-17 represent definite endoderm markers and GSC, Bry, and CXCR4 represent markers of primitive streak. hTERT and Oct-4 are markers for self renewal and pluripotency respectively. FACS analysis was also performed at day 3 and 5.

[4] = Cell conditioned media, H9 day 5, samples 1,2
[5] = Cell lysate, H9 day 5, samples 1,2

Wnt-3a
Acrp30 [1, 4]: 2,795.71 and 2,302.99
AgRP [1, 4]: 651.26 and 482.21
Amphiregulin [1, 4]: 619.07 and 782.60
Angiogenin [1, 4]: 57,442.48 and 54,969.04
Angiopoietin-2 [1, 4]: 65,959.24 and 71,664.21
AxI [1, 4]: 610.40 and 748.34
BDNF [1, 4]: 770.08 and 715.86
BLC [1, 4]: 337.12 and 249.80
BMP-6 [1, 4]: 985.70 and 670.60
CK beta 8-1 [1, 4]: 42.78 and 75.44
CNTF [1, 4]: 787.19 and 541.51
EGF [1, 4]: 23,331.57 and 22,768.53
Eotaxin-2 [1, 4]: 2,156.21 and 1,445.14
Eotaxin-3 [1, 4]: 2,140.81 and 1,480.35
FGF-6 [1, 4]: 3,283.94 and 2,519.78
Flt-3 Ligand [1, 4]: 511.67 and 792.98
Fractalkine [1, 4]: 359.37 and 367.15
GCP-2 [1, 4]: 451.78 and 362.12
GDNF [1, 4]: 443.22 and 509.66
GM-CSF [1, 4]: 1,808.82 and 1,446.82
I-309 [1, 4]: 318.30 and 288.36
IFN-gamma [1, 4]: 1,238.97 and 1,435.08
IGF-I [1, 4]: 254.98 and 187.77
IGFBP-1 [1, 4]: 227.60 and 155.91
IGFBP-2 [1, 4]: 42,215.53 and 43,934.33
IGFBP-4 [1, 4]: 18,988.34 and 13,380.14
IL-1alpha [1, 4]: 3,999.26 and 3,545.79
IL-1beta [1, 4]: 316.59 and 278.30
IL-1ra [1, 4]: 354.23 and 581.75
IL-2 [1, 4]: 758.10 and 881.84
IL-3 [1, 4]: 11,345.78 and 12,174.73
IL-4 [1, 4]: 804.30 and 673.95
IL-5 [1, 4]: 2,120.27 and 1,713.38
IL-6 [1, 4]: 9,774.82 and 9,991.93
IL-10 [1, 4]: 1,625.71 and 1,129.96
IL-13 [1, 4]: 2,522.42 and 1,807.27
IL-15 [1, 4]: 2,495.04 and 1,981.62
IL-16 [1, 4]: 436.38 and 405.71
LIGHT [1, 4]: 1,346.78 and 1,108.17
Leptin [1, 4]: 7,238.71 and 4,886.99
M-CSF [1, 4]: 740.98 and 684.01
MCP-1 [1, 4]: 2,015.89 and 1,567.53
MCP-2 [1, 4]: 694.78 and 694.07
MCP-3 [1, 4]: 701.62 and 583.42
MCP-4 [1, 4]: 231.02 and 276.62
MIP-1-delta [1, 4]: 474.02 and 291.71
MIP-3-alpha [1, 4]: 208.78 and 184.41
NAP-2 [1, 4]: 371.35 and 343.68
NT-3 [1, 4]: 571.57 and 427.51
PARC [1, 4]: 474.02 and 363.80
PDGF-BB [1, 4]: 2,635.37 and 2,005.09
RANTES [1, 4]: 682.80 and 855.01
SCF [1, 4]: 1,394.69 and 2,155.98
SDF-1 [1, 4]: 326.85 and 616.95
TGF-beta 1 [1, 4]: 1,827.65 and 1,849.18
TGF-beta 3 [1, 4]: 294.34 and 343.68
TNF-alpha [1, 4]: 2,609.70 and 2,167.71
TNF-beta [1, 4]: 1,701.01 and 1,637.94
bFGF [1, 4]: 1,226.99 and 1,241.09
Acrp30 [1, 5]: 601.61 and 690.66
AgRP [1, 5]: 77.82 and 89.00
Angiogenin [1, 5]: 619.40 and 750.85
AxI [1, 5]: 88.59 and 139.03
BDNF [1, 5]: 763.51 and 951.45
BLC [1, 5]: 742.24 and 476.36
BMP-4 [1, 5]: 348.44 and 304.48
BMP-6 [1, 5]: 571.23 and 641.05
CK beta 8-1 [1, 5]: 22.48 and 21.54
CNTF [1, 5]: 1,382.51 and 1,060.82
EGF [1, 5]: 742.24 and 984.39
Eotaxin [1, 5]: 301.87 and 253.80
Eotaxin-3 [1, 5]: 934.12 and 847.56
Flt-3 Ligand [1, 5]: 857.45 and 795.19
Fractalkine [1, 5]: 792.02 and 456.51
GCP-2 [1, 5]: 593.71 and 538.86
GDNF [1, 5]: 436.75 and 444.68
GM-CSF [1, 5]: 1,343.17 and 1,161.75
I-309 [1, 5]: 708.52 and 743.25
IFN-gamma [1, 5]: 1,202.67 and 1,037.60
IGFBP-1 [1, 5]: 59.41 and 85.73
IGFBP-2 [1, 5]: 2,671.90 and 2,414.72
IGFBP-4 [1, 5]: 4,459.85 and 4,173.19
IL-1alpha [1, 5]: 1,612.93 and 1,421.89
IL-1beta [1, 5]: 352.05 and 312.08
IL-1ra [1, 5]: 302.68 and 198.48
IL-3 [1, 5]: 2,119.94 and 1,497.48
IL-4 [1, 5]: 625.42 and 638.94
IL-5 [1, 5]: 1,245.23 and 1,167.24
IL-10 [1, 5]: 1,222.75 and 1,096.30
IL-13 [1, 5]: 1,486.89 and 1,407.96
IL-15 [1, 5]: 1,677.16 and 1,601.79
IL-16 [1, 5]: 651.11 and 668.50
Leptin [1, 5]: 1,234.39 and 1,091.65
M-CSF [1, 5]: 852.63 and 867.83
MCP-1 [1, 5]: 1,022.03 and 1,076.03
MCP-3 [1, 5]: 1,184.61 and 1,255.50
MCP-4 [1, 5]: 1,380.51 and 1,606.86
MDC [1, 5]: 269.36 and 280.41
MIG [1, 5]: 1,113.16 and 1,137.26
MIP-1-delta [1, 5]: 491.75 and 322.22
MIP-3-alpha [1, 5]: 1,602.09 and 1,399.93
NT-3 [1, 5]: 316.73 and 275.76
PARC [1, 5]: 352.85 and 353.04
PDGF-BB [1, 5]: 517.84 and 597.56
RANTES [1, 5]: 724.98 and 637.25
SCF [1, 5]: 1,152.50 and 1,021.13
TARC [1, 5]: 372.93 and 343.33
TGF-beta 1 [1, 5]: 1,426.67 and 1,240.30
TNF-alpha [1, 5]: 2,851.74 and 1,285.91
TNF-beta [1, 5]: 1,049.33 and 1,026.62
bFGF [1, 5]: 11,722.95 and 21,398.52
Angiogenin, IGFBP-1 and EGF ([1]; cell conditioned media): Noticeable upregulation
proteins including IGFBP-1, TGFbeta-1 and TGFbeta-3 ([1]; cell lysates): upregulated
expression of definitive endoderm markers [2]: Robust expression
nuclei stained positive for SOX-17, HNF-3beta, and GATA-4 (H9 cells; 20 ng/ml Wnt-3a, Day 5 DE cultures): significantly larger number
expression of N-cadherin (H9 cells; addition of Wnt-3a): enhanced expression
expression of e-cadherin (H9 cells; addition of Wnt-3a): significant loss of expression
role in differentiation of hES cells cultured on MEFs to definitive endoderm [3]: does not appear to play a significant role
AFP expression ([3]; Wnt-3a added to 100 ng/ml activin A): increase in the expression of AFP that increases over time
